Data from patent US12622917B2, “High-activity Wnt pathway inhibitor compound” (ADLAI NORTYE BIOPHARMA CO., LTD., priority 2020, dated 2026).
pIC50: −log10 of the molar value.

Tests used:
RKO = experiment: Proliferation inhibition, non-Wnt mutant control cell line RKO; type: cell-based; conditions: Homo sapiens, Wnt-independent control cell line, 96 hours, read-out: Antiproliferative IC50 RKO
Procedure, shortened: (§1)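 IC50 for growth inhibition came from a 96-hour incubation with serially diluted compound (3-fold, top 20 uM final), with cells seeded at 1000 per well the day before and read by a Promega viability assay.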

DU4475 = experiment: Proliferation inhibition, Wnt mutant cell line DU4475; type: cell-based; conditions: Homo sapiens, DU-4475; DU4475, Wnt pathway-dependent, 96 hours; read-out: Antiproliferative IC50 DU4475
Excerpt: The cell lines used in the experiment are Colo205 and DU4475 cell lines whose Wnt pathway is continuously activated and whose proliferation is Wnt pathway-dependent; while the BELA and RKO cell lines, whose Wnt pathway is not activated under normal circumstances and the proliferation is independent of Wnt pathway, as control cell lines. It is Judged that the inhibitory effect of the compound of the present invention on Wnt-dependent proliferation is not caused by other non-specific toxicity.
Treat the Colo205, Du4475, HELA and RKO cell lines cultured in their respective mediums in the logarithmic growth phase, collect the cells and prepare a uniform cell suspension of known concentration, and then add it to the 96-well cell culture plate Cell suspension, so that each well contains 1000 cells. Put it into a 5% CO2 incubator and incubate at 37° C. for 20-24 h. On the second day, the fully dissolved, 3-fold serially diluted compound was added to each cell culture well, so that the final maximum concentration in the cell culture well was 20 uM, and the culture was continued for 96 hours. In this test, Promega's cell viability detection test is used for detection. The more the cells proliferate, the stronger the final signal intensity will be. The detection instrument is SpectraMax, full wavelength mode. The wells only added with DMSO were used as positive control wells, and the wells that were not inoculated with cells were used as negative control wells. […] The IC50 value of cell proliferation inhibition was used to evaluate the inhibitory effect of the compound on the Wnt pathway and the toxic effect on normal cells (Table 2).

Colo205 = experiment: Proliferation inhibition, Wnt mutant cell line Colo205; type: cell-based; conditions: Homo sapiens, COLO 205; Colo205, Wnt pathway-dependent, 96 hours; read-out: Antiproliferative IC50 Colo205
Procedure, shortened: as §1

HepG2 = experiment: Proliferation inhibition, HepG2 cell line; type: cell-based; conditions: Homo sapiens; HepG2 cells, 96 hours culture, cell viability detection; read-out: Antiproliferative IC50 HepG2
Excerpt: (§2) The cell lines used in the test are NCI-H929 and HepG2 cell lines whose Wnt pathway is continuously activated and whose proliferation is Wnt pathway-dependent; the inhibitory effect of the compound of the present invention on Wnt-dependent proliferation is judged.
(§3) Treat the NCI-H929 and HepG2 cell lines cultured in their respective mediums in the logarithmic growth phase, collect the cells and prepare a uniform cell suspension of known concentration, and then add the cell suspension to the 96-well cell culture plate solution so that each well contains 4000 cells. Put it into a […] incubator and incubate at 37° C. for 20-24 h. On the second day, the fully dissolved, 3-fold serially diluted compound was added to each cell culture well, so that the final maximum concentration in the cell culture well was 20 uM, and the culture was continued for 96 hours. In this test, Promega's cell viability detection test is used for detection. The more the cells proliferate, the stronger the final signal intensity will be. The detection instrument is SpectraMax, full wavelength mode. The wells only added with DMSO were used as positive control wells, and the wells that were not inoculated with cells were used as negative control wells. […] The IC50 value of cell proliferation inhibition was used to evaluate the inhibitory effect of the compound on the Wnt pathway and the toxic effect on normal cells (Table 3).

[1] = test system: Colo205-LUC-TCF/LEF M1 reporter cell line (Wnt pathway); experiment: Colo205-LUC-TCF/LEF M1 reporter gene (luciferase) inhibition; type: cell-based; conditions: 4 hours incubation, luciferase readout
Procedure, shortened: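 Luminescent readout of TCF/LEF-regulated luciferase after a 4 h, 37° C compound exposure in a stable Colo205 reporter clone (10,000 cells/well). Serial 3-fold dilutions started at 20 uM; IC50 derived using DMSO-treated cells and no-cell wells as controls.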

NCI-H929 = experiment: Proliferation inhibition, NCI-H929 cell line; type: cell-based, human; conditions: Homo sapiens; NCI-H929 cells, 96 hours culture, cell viability detection; read-out: Antiproliferative IC50 NCI-H929
Excerpt: as §2, §3

Compound	pIC50 (Colo205)	pIC50 (HepG2)	pIC50 [1]	pIC50 (NCI-H929)	pIC50 (RKO)	pIC50 (DU4475)
CC[C@H]1C(=O)N2CCCc3nc(NCc4ccc(Oc5ccc(C(F)(F)F)nc5)nc4)nc(c32)N1C [119 (W255), (S)-5-ethyl-4-methyl-2-(((6-((6-(trifluoromethyl)pyridin-3-yl)oxo)pyridin-3-yl)methyl)amino)-4,5,9,10-tetrahydro-6H,8H-pyrido[3,2,1-de]pteridin-6-one]	8.12	8.27	8.15	7.55	< 5.00	8.64
CN1c2nc(NCc3ccc(Oc4ccc(C(F)(F)F)nc4)nc3)nc3c2N(CCC3)C(=O)[C@@H]1C1CC1 [120 (W265)]	8.11	7.74	7.82	7.26	< 5.00	9.30
[2H]C([2H])([2H])N1c2nc(NCc3ccc(Oc4cnc(C(F)(F)F)nc4)nc3)nc3c2N(CCC3)C(=O)[C@@H]1CC(F)F [164 (W326)]	8.30	8.12	7.59	7.59	< 5.00	8.30
[2H]C([2H])([2H])N1c2nc(NCc3ccc(Oc4ccc(C(F)(F)F)nc4)nc3)nc3c2N(CCC3)C(=O)[C@@H]1CC(F)F [163 (W325)]	8.30	8.15	7.80	7.51	< 5.00	8.33
C[C@H]1C(=O)N2CCCc3nc(NCc4ccc(Oc5cc(C(F)(F)F)nn5C)nc4)nc(c32)N1C [128 (W263), (S)-4,5-dimethyl-2-(((6-((1-methyl-3-(trifluoromethyl)-1H-pyrazol-5-yl)oxo)pyridine-3-yl)methyl)amino)-4,5,9,10-tetrahydro-6H,8H-pyrido[3,2,1-de]pteridin-6-one]	7.73	7.57	7.72	7.11	< 5.00	8.39
CCN1c2nc(NCc3ccc(Oc4ccc(C(F)(F)F)nc4)nc3)nc3c2N(CCC3)C(=O)[C@@H]1C(C)C [118 (W279), (S)-4-ethyl-5-isopropyl-2-(((6-((6-(trifluoromethyl)pyridin-3-yl)oxo)pyridin-3-yl)methyl)amino)-4,5,9,10-tetrahydro-6H,8H-pyrido[3,2,1-de]pteridin-6-one]	8.07	7.80	8.30	7.08	< 5.00	8.19

Now from value to compound, other results behind:

pIC50 (Colo205)	pIC50 (HepG2)	pIC50 [1]	pIC50 (NCI-H929)	Compound	pIC50 (RKO)	pIC50 (DU4475)
8.25	7.57	7.70	7.40	CN1c2nc(NCc3ccc(Oc4ccc(C(F)(F)F)nc4)nc3)nc3c2N(CCC3)C(=O)C1(C)C [176 (W296)]	< 5.00	8.42
8.10	8.68	7.96	8.19	CN1c2nc(NCc3ccc(Oc4ccc(C(F)(F)F)nc4)nc3)nc3c2N(CCC3)C(=O)[C@@H]1CC(F)(F)F [190 (W317)]	< 5.00	> 9.30
7.92	7.96	7.85	7.51	[2H]C([2H])([2H])N1c2nc(NCc3ccc(Oc4cnc(C(F)(F)F)nc4)nc3)nc3c2N(CCC3)C(=O)[C@@H]1C1CC1 [165 (W286)]	< 5.00	9.22
7.80	7.68	7.64	7.51	CCN1c2nc(NCc3ccc(Oc4cnc(C(F)(F)F)nc4)nc3)nc3c2N(CCC3)C(=O)[C@@H]1C1CC1 [166 (W287)]	5.32	8.32
7.72	7.64	7.41	7.22	[2H]C([2H])([2H])N1c2nc(NCc3ccc(Oc4cnc(C(F)(F)F)nc4)nc3)nc3c2N(CCC3)C(=O)[C@@H]1COC [178 (W333)]	< 5.00	7.86
